# Data taken from patent US20260242330A1, “USE OF AN AMANTADINE MONONITRATE COMPOUND IN MANUFACTURE OF A MEDICAMENT FOR THE PREVENTION AND TREATMENT OF HYPERTENSION” (GUANGZHOU MAGPIE PHARMACEUTICALS CO., LTD., priority 2022, published 2026).
# How the values were obtained:
# [1] = Pharmacokinetic test of MN-08 in clinical trial, single oral dose; format: in vivo, human
# Protocol: In the clinical trial of amantadine mononitrate compound MN-08, the pharmacokinetic test included a total of 8 dose groups (6 mg, 12 mg, 42 mg, 60 mg, 78 mg, 96 mg, 114 mg, and 132 mg).
# The subjects received a single oral dose of MN-08 at doses of 6 mg, 12 mg, 42 mg, 60 mg, 78 mg, 96 mg, 114 mg, and 132 mg, respectively. […] Most existing antihypertensive drugs have a short half-life and require frequent administration, resulting in poor patient compliance. In contrast, the amantadine mononitrate compound MN-08 of the present invention has a half-life of more than 20 hours, a long drug action time, and can reduce the number of administration times and improve patient compliance compared to other existing hypertensive drugs.
# [2] = tested on: blood pressure of subjects; assay: Effect of single administration of MN-08 on blood pressure of subjects (clinical trial); format: in vivo, human
# From the text: All subjects in the following embodiments have signed informed consent forms, which comply with medical ethics regulations. According to the relevant provisions of Chinese Guidelines for the Prevention and Treatment of Hypertension (2018 Revision), the values measured for hypertension are the average blood pressure measured three times on a different day without the use of antihypertensive drugs. Therefore, in this embodiment, the baseline blood pressure of the subjects before administration is set as the average blood pressure measured at three different times: screening period, occupancy period, and 1 hour before administration, as shown in Tables 1 to 3.
# In the clinical trial of amantadine mononitrate compound MN-08, it is investigated the effect of MN-08 on blood pressure in subjects. The experiments were carried out to analyze the blood pressure status of subjects in both the single dose and multiple dose groups.
# During a single administration, each dose group is required to fast for at least 10 hours before administration, without water deprivation overnight, and on the day of administration, the medication is taken on an empty stomach at around 8 a.m., with 240 mL of water administered.
compound,measurement,setting,value
CCC12CC3CC(N)(C1)CC(CO[N+](=O)[O-])(C3)C2 (stereo not drawn) [MN-08],half-life,"[1]; human, in vivo, po, single oral administration, dose range 6 mg to 132 mg, t1/2 extends with increasing dosage",20 to 30 h
same,time at which peak concentration was reached,"[1]; single oral dose, 6 mg to 132 mg groups",2.5 to 6.5 h
same,diastolic pressure reduced by,"[2]; 6 mg single dose, at 6 hours",17.1%
same,systolic pressure reduced by,"[2]; 6 mg single dose, at 6 hours",13.2%
same,DP,"[2]; Subject 1, 12 mg single dose, 6 hrs after adm. (D 1), baseline 77 mmHg",64 mmHg
same,SP,"[2]; Subject 1, 12 mg single dose, 6 hrs after adm. (D 1), baseline 122 mmHg",104 mmHg
same,DP (reduce amplitude),"[2]; Subject 1, 12 mg single dose, 6 hrs after adm. (D 1), vs baseline 77 mmHg",−16.9%
same,SP (reduce amplitude),"[2]; Subject 1, 12 mg single dose, 6 hrs after adm. (D 1), vs baseline 122 mmHg",−14.8%
same,DP,"[2]; Subject 1, 12 mg single dose, 12 hrs after adm. (D 1), baseline 77 mmHg",60 mmHg
same,SP,"[2]; Subject 1, 12 mg single dose, 12 hrs after adm. (D 1), baseline 122 mmHg",109 mmHg
same,DP (reduce amplitude),"[2]; Subject 1, 12 mg single dose, 12 hrs after adm. (D 1), vs baseline 77 mmHg",−22.1%
same,SP (reduce amplitude),"[2]; Subject 1, 12 mg single dose, 12 hrs after adm. (D 1), vs baseline 122 mmHg",−10.7%
same,DP,"[2]; Subject 2, 42 mg single dose, 6 hrs after adm. (D 1), baseline 79 mmHg",63 mmHg
same,SP,"[2]; Subject 2, 42 mg single dose, 6 hrs after adm. (D 1), baseline 113 mmHg",96 mmHg
same,DP (reduce amplitude),"[2]; Subject 2, 42 mg single dose, 6 hrs after adm. (D 1), vs baseline 79 mmHg",−20.3%
same,SP (reduce amplitude),"[2]; Subject 2, 42 mg single dose, 6 hrs after adm. (D 1), vs baseline 113 mmHg",−15.0%
same,DP,"[2]; Subject 2, 42 mg single dose, 12 hrs after adm. (D 1), baseline 79 mmHg",69 mmHg
same,SP,"[2]; Subject 2, 42 mg single dose, 12 hrs after adm. (D 1), baseline 113 mmHg",96 mmHg
same,DP (reduce amplitude),"[2]; Subject 2, 42 mg single dose, 12 hrs after adm. (D 1), vs baseline 79 mmHg",−12.7%
same,SP (reduce amplitude),"[2]; Subject 2, 42 mg single dose, 12 hrs after adm. (D 1), vs baseline 113 mmHg",−15.0%
same,DP,"[2]; Subject 3, 42 mg single dose, 6 hrs after adm. (D 1), baseline 85 mmHg",72 mmHg
same,SP,"[2]; Subject 3, 42 mg single dose, 6 hrs after adm. (D 1), baseline 124 mmHg",118 mmHg
same,DP (reduce amplitude),"[2]; Subject 3, 42 mg single dose, 6 hrs after adm. (D 1), vs baseline 85 mmHg",−15.3%
same,SP (reduce amplitude),"[2]; Subject 3, 42 mg single dose, 6 hrs after adm. (D 1), vs baseline 124 mmHg",−4.8%
same,DP,"[2]; Subject 3, 42 mg single dose, 12 hrs after adm. (D 1), baseline 85 mmHg",61 mmHg
same,SP,"[2]; Subject 3, 42 mg single dose, 12 hrs after adm. (D 1), baseline 124 mmHg",98 mmHg
same,DP (reduce amplitude),"[2]; Subject 3, 42 mg single dose, 12 hrs after adm. (D 1), vs baseline 85 mmHg",−28.2%
same,SP (reduce amplitude),"[2]; Subject 3, 42 mg single dose, 12 hrs after adm. (D 1), vs baseline 124 mmHg",−21.0%
same,DP,"[2]; Subject 4, 60 mg single dose, 6 hrs after adm. (D 1), baseline 78 mmHg",58 mmHg
same,SP,"[2]; Subject 4, 60 mg single dose, 6 hrs after adm. (D 1), baseline 107 mmHg",93 mmHg
same,DP (reduce amplitude),"[2]; Subject 4, 60 mg single dose, 6 hrs after adm. (D 1), vs baseline 78 mmHg",−25.6%
same,SP (reduce amplitude),"[2]; Subject 4, 60 mg single dose, 6 hrs after adm. (D 1), vs baseline 107 mmHg",−13.1%
same,DP,"[2]; Subject 4, 60 mg single dose, 12 hrs after adm. (D 1), baseline 78 mmHg",58 mmHg
same,SP,"[2]; Subject 4, 60 mg single dose, 12 hrs after adm. (D 1), baseline 107 mmHg",90 mmHg
same,DP (reduce amplitude),"[2]; Subject 4, 60 mg single dose, 12 hrs after adm. (D 1), vs baseline 78 mmHg",−25.6%
same,SP (reduce amplitude),"[2]; Subject 4, 60 mg single dose, 12 hrs after adm. (D 1), vs baseline 107 mmHg",−15.9%
same,DP,"[2]; Subject 5, 60 mg single dose, 6 hrs after adm. (D 1), baseline 73 mmHg",62 mmHg
same,SP,"[2]; Subject 5, 60 mg single dose, 6 hrs after adm. (D 1), baseline 111 mmHg",93 mmHg
same,DP (reduce amplitude),"[2]; Subject 5, 60 mg single dose, 6 hrs after adm. (D 1), vs baseline 73 mmHg",−15.1%
same,SP (reduce amplitude),"[2]; Subject 5, 60 mg single dose, 6 hrs after adm. (D 1), vs baseline 111 mmHg",−16.2%
same,DP,"[2]; Subject 5, 60 mg single dose, 12 hrs after adm. (D 1), baseline 73 mmHg",61 mmHg
same,SP,"[2]; Subject 5, 60 mg single dose, 12 hrs after adm. (D 1), baseline 111 mmHg",95 mmHg
same,DP (reduce amplitude),"[2]; Subject 5, 60 mg single dose, 12 hrs after adm. (D 1), vs baseline 73 mmHg",−16.4%
same,SP (reduce amplitude),"[2]; Subject 5, 60 mg single dose, 12 hrs after adm. (D 1), vs baseline 111 mmHg",−14.4%
same,DP,"[2]; Subject 6, 78 mg single dose, 6 hrs after adm. (D 1), baseline 67 mmHg",61 mmHg
same,SP,"[2]; Subject 6, 78 mg single dose, 6 hrs after adm. (D 1), baseline 113 mmHg",103 mmHg
same,DP (reduce amplitude),"[2]; Subject 6, 78 mg single dose, 6 hrs after adm. (D 1), vs baseline 67 mmHg",−9.0%
same,SP (reduce amplitude),"[2]; Subject 6, 78 mg single dose, 6 hrs after adm. (D 1), vs baseline 113 mmHg",−8.8%
same,DP,"[2]; Subject 6, 78 mg single dose, 12 hrs after adm. (D 1), baseline 67 mmHg",54 mmHg
same,SP,"[2]; Subject 6, 78 mg single dose, 12 hrs after adm. (D 1), baseline 113 mmHg",104 mmHg
same,DP (reduce amplitude),"[2]; Subject 6, 78 mg single dose, 12 hrs after adm. (D 1), vs baseline 67 mmHg",−19.4%
same,SP (reduce amplitude),"[2]; Subject 6, 78 mg single dose, 12 hrs after adm. (D 1), vs baseline 113 mmHg",−8.0%
same,DP,"[2]; Subject 7, 78 mg single dose, 6 hrs after adm. (D 1), baseline 74 mmHg",62 mmHg
same,SP,"[2]; Subject 7, 78 mg single dose, 6 hrs after adm. (D 1), baseline 106 mmHg",94 mmHg
